Several values for one entry are separate records, joined by “and”; a condition that tells them apart may be missing. Equal entries are not always repeated. Where two headings read alike, the source gives them in different places.
Assays:
[1] = molecular target: drIndy (Drosophila melanogaster, UniProt Q9VVT2); conditions: for % Control of cDNA-specific [^3H]succinate uptake / cDNA-specific [^3H] succinate uptake: [3H]succinate 40 nM, inhibitor 2.5 mM; for cDNA-specific [^3H] succinate uptake: NaCl buffer pH 7.5
[2] = molecular target: T1, rat NaCT (Rattus norvegicus, UniProt Q8CJ44); test: Uptake via rat NaCT expressed in HRPE cells; assay type: cell-based; conditions: for Citrate Uptake, cDNA / Citrate Uptake, cDNA-specific: pH 7.5
T1 sequence (Q8CJ44 1-572): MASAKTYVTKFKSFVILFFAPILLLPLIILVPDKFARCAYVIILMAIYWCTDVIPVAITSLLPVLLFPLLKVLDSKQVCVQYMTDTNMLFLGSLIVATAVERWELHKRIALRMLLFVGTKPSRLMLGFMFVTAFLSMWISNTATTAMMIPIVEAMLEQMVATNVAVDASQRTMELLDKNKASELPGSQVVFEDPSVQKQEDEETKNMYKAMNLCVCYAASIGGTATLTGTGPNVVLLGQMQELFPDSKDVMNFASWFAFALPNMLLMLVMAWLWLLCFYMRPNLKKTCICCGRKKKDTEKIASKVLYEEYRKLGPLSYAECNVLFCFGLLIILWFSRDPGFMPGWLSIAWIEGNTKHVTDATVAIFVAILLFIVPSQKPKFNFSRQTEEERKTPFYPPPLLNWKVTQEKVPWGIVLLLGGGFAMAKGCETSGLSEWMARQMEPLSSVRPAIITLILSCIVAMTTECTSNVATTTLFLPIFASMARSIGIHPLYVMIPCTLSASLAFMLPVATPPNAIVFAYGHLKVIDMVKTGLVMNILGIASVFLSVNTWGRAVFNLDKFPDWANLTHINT

[3] = molecular target: human NaCT (Homo sapiens, UniProt Q86YT5); test: Uptake via human NaCT expressed in HRPE cells; assay type: cell-based; conditions: for Citrate Uptake, cDNA / Citrate Uptake, cDNA-specific: pH 7.5
[4] = molecular target: T2, mouse NaCT (Mus musculus, UniProt Q67BT3); test: Transport via mouse NaCT expressed in HRPE cells; assay type: cell-based
T2 sequence (Q67BT3 1-572): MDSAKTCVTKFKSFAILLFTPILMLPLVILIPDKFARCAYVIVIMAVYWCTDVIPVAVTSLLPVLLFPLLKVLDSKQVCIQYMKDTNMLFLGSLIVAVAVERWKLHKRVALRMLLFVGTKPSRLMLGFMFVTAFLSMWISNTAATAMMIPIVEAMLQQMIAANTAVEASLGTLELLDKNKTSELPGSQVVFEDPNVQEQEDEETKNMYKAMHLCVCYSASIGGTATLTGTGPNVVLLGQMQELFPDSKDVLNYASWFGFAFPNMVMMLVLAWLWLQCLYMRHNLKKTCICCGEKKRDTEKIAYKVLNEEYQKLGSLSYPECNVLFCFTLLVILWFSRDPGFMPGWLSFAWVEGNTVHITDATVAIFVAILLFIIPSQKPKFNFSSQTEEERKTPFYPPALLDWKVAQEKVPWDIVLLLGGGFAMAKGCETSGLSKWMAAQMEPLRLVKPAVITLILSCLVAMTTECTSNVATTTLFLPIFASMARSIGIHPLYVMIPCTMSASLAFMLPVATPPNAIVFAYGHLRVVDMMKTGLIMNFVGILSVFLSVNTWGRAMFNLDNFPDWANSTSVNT

[5] = [14C]citrate 7 μM, indicated salt
[6] = [14C]citrate 7 μM, rat NaCT cDNA-transfected HRPE, indicated salt
[7] = relative to NaCl, [14C]citrate 7 μM
[8] = [14C]-citrate 20 μM, human NaCT cDNA-transfected HRPE, indicated salt
[9] = [14C]-citrate 20 μM, indicated salt
[10] = citrate 35 μM, drIndy cDNA-transfected HRPE cells, indicated salt

Sequence of human NaCT (Q86YT5 whole entry): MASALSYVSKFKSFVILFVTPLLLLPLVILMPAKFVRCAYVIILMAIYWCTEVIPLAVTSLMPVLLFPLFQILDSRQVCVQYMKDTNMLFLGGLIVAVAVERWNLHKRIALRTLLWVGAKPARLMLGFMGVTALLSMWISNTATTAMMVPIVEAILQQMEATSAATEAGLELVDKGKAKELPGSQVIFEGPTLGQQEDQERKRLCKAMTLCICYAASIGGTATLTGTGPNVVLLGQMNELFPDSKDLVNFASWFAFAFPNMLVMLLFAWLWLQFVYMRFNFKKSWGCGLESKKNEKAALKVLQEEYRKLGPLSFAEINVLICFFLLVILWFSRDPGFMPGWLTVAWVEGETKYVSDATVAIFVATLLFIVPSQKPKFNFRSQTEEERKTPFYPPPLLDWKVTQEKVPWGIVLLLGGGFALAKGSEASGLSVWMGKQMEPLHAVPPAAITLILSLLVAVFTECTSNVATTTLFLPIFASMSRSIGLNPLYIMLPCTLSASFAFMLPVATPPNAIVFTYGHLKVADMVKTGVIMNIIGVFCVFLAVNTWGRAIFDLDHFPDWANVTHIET
Sequence of drIndy (Q9VVT2 19-590): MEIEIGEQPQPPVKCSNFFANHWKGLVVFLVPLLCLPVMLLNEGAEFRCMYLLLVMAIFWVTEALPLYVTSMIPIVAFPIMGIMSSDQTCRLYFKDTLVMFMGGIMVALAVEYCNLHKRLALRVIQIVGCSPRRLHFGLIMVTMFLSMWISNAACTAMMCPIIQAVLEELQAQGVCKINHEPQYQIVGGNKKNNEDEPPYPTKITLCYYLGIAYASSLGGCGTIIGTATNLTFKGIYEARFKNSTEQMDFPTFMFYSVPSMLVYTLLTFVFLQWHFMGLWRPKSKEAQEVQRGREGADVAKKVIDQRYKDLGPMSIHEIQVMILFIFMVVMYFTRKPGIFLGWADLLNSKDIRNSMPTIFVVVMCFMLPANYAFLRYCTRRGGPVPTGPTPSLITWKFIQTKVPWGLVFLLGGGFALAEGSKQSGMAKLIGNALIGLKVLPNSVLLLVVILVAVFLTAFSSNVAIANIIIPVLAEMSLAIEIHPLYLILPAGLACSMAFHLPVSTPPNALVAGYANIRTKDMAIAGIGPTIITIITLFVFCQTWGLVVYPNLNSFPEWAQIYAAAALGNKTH

Compound	% Control of cDNA-specific [^3H]succinate uptake [1] [%]	Citrate Uptake, cDNA-specific [2, 5] [pmol/10^6 cells/min]	Citrate Uptake, cDNA [2, 6] [pmol/10^6 cells/min]	Citrate Uptake, cDNA-specific, % [2, 7] [%]	Citrate Uptake, cDNA [3, 8] [pmol/10^6 cells/min]	Citrate Uptake, cDNA-specific [3, 9]	Citrate Uptake, cDNA-specific, % ([3]; relative to NaCl) [%]	Citrate uptake, drIndy [1, 10] [pmol/10^6 cells per min]	Fold Increase of citrate uptake (drIndy vs vector) ([1]; citrate 35 μM, indicated salt) [fold]	further results
COC(=O)CCC(=O)OC [Dimethylsuccinate]	13									cDNA-specific [^3H] succinate uptake [1]: 14.1 ± 0.8 fmol/106 cells per min
[Cl-].[K+] [KCl]										Citrate Uptake, cDNA-specific, % [2]: 0%; Citrate Uptake, cDNA [2]: 0.6 ± 0.1 pmol/10^6 cells/min; Citrate Uptake, cDNA-specific [2]: 0.1 ± 0.1 pmol/10^6 cells/min; Citrate Uptake, cDNA-specific, % [3]: 0%; Citrate Uptake, cDNA [3]: 1.1 ± 0.1 pmol/10^6 cells/min; Citrate Uptake, cDNA-specific [3]: −0.1 ± 0.1^ pmol/10^6 cells/min; Citrate uptake, drIndy [1]: 33.8 ± 2.7 pmol/10^6 cells per min; Fold Increase of citrate uptake (drIndy vs vector) [1]: 19.9 fold; Succinate uptake, drIndy ([1]; pH 7.5): 111.0 ± 8.5 fmol/10^6 cells per min
[Cl-].[Li+] [LiCl]		1.1 ± 0.1	1.6 ± 0.1	3	2.0 ± 0.1	0.7 ± 0.1 pmol/10^6 cells/min	1	52.1 ± 2.2	27.4	
OC[C@@H](O)[C@@H](O)[C@H](O)[C@H](O)CO [Mannitol]		0.1 ± 0.1	0.7 ± 0.1	0				26.3 ± 0.3	15.5	
CC(=O)N[C@@H](CC(=O)O)C(=O)O [N-Acetylaspartate]	43									cDNA-specific [^3H] succinate uptake [1]: 58.4 ± 1.5 fmol/106 cells per min
CNC[C@H](O)[C@@H](O)[C@H](O)[C@H](O)CO.Cl [NMDG chloride, N-methyl-D-glucamine chloride]		0.4 ± 0.3	1.6 ± 0.3	1	1.3 ± 0.2	−0.1 ± 0.2^ pmol/10^6 cells/min	0	25.4 ± 1.8	13.4	
[Cl-].[Na+] [NaCl]		38.0 ± 3.3	38.8 ± 3.3	100	59.9 ± 3.9	58.4 ± 3.9 pmol/10^6 cells/min	100	57.4 ± 3.3	26.1	
[Na+] [Na^+]										Hill coefficient (nH) of Na+ dependence of citrate uptake [2]: 3.3±0.3; Hill coefficient (nH) of Na+ activation [4]: 3.3±0.6 and 2.0±0.3; EC50 ([4]; read-out: K0.5 for Na+ (half-maximal activation of the transport process)): 72 ± 6 mM
CC(=O)C(=O)O [Pyruvate, pyruvate]	21									[^14C]Citrate uptake, % ([2]; [14C]citrate 14 μM, unlabeled compound 2.5 mM, none = 100): 83%; [^14C]-Citrate Uptake, % ([3]; [14C]-citrate 20 μM, unlabeled compound 2.5 mM, none = 100): 108%; [^3H]-Succinate transport, % ([4]; [3H]-succinate 0.1 μM, substrate analog 2 mM, control = 100): 104%; [^14C]-Citrate transport, % ([4]; [14C]-citrate 10 μM, substrate analog 2 mM, control = 100): 84%
O=C([O-])[C@H](O)[C@@H](O)[C@H](O)[C@H](O)CO.[Na+] [Sodium gluconate]		29.1 ± 2.3	29.6 ± 2.3	77	61.7 ± 4.7	60.1 ± 4.7 pmol/10^6 cells/min	103	144.2 ± 1.6	65.6	
O=C(O)CC(O)(C(=O)O)C(O)C(=O)O (centres unmarked) [hydroxycitrate]										Inhibition of citrate uptake via NaCT ([2]; 0.1 mM hydroxycitrate, rat NaCT in HRPE cells): 30-40%; Inhibition of citrate uptake via NaCT ([3]; 0.1 mM hydroxycitrate, human NaCT in HRPE cells): 30-40%
CC(O)CC(=O)O (stereo not drawn) [β-Hydroxybutyrate]	91									cDNA-specific [^3H] succinate uptake [1]: 134.0 ± 9.0 fmol/106 cells per min
